Data from BindingDB's records for patent US11066409 (Shionogi, 2021).

Biological target: T1, P2X purinoceptor 7 [R270H] (Homo sapiens, UniProt Q99572, R270H)
T1 construct: gene P2RX7
Assay: Inhibition Assay
Experimental: Evaluation of a human P2X7 receptor inhibitory activity Stably expressing cell line (1321N1 cell transfected with the human P2X7 receptor gene (GenBank accession number NM_002562.5 including T606C and G952A SNP)) was used. The cells were seeded in a 384-well microtiter plate at a concentration of 8000 cells/well and cultured in the medium (10% fetal bovine serum, 25 mM HEPES, 1% penicillin and streptomycin in DMEM) for one day at 37° C. under 5% carbon dioxide atmosphere. After replacing with 20 μL of the HBSS buffer (20 mM HEPES, 55.6 mM D-glucose, 1× HBSS(−), pH7.4-7.5), 15 μL of 17.3 μM Yo-Pro solution in the HBSS buffer was added. The plate was placed in high-throughput cellular screening system FLIPR TETRA (Molecullar Devices, LLC.) and 15 μL of 130 μM BzATP solution in the HBSS buffer was added. Measurement of fluorescence intensity by FLIPR TETRA was started. After eight minutes, 15 μL of DMSO solutions containing different concentrations of the compound of the present invention as prepared by dilution with the HBSS buffer were dispensed to each well through the built-in automatic dispenser, and the measurement of fluorescence intensity was continued for 20 minutes. The maximum fluorescence intensity without the compound of the present invention is calculated as 0% inhibition and the maximum fluorescence intensity when the reference compound was added is calculated as 100% inhibition.

T1 sequence (Q99572 whole entry R270H, looked up): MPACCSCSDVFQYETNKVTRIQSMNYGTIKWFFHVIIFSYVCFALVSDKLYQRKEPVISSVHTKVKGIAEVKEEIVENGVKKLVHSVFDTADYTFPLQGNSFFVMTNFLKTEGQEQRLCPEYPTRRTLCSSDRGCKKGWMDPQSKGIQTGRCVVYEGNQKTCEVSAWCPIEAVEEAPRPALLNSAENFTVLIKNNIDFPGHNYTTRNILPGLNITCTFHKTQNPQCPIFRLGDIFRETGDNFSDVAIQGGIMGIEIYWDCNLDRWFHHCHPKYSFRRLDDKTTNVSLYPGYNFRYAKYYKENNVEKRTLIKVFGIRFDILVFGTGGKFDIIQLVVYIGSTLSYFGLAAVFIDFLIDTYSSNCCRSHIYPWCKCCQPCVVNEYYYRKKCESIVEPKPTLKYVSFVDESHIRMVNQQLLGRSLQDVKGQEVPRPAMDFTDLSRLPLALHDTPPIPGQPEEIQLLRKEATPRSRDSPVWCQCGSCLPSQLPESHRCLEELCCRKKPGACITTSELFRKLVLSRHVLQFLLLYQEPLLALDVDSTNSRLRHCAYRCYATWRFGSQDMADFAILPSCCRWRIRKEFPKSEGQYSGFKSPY

Compound | IC50
COc1cc(Nc2nc(=O)c(F)c3n2C(c2cc(F)cc(F)c2)CC3)c(C)cc1F (stereo not drawn) [US11066409, Compound I-0099] | < 10 nM
Cc1cc(F)c(CO)cc1NC1=NC(=O)N(C)C2=NCC(c3cc(F)c(F)c(F)c3)N12 (stereo not drawn) [US11066409, Compound I-0168] | 23 nM
Cc1ccc(OCCO)cc1NC1=NC(=O)N(C)C2=NCC(c3cc(F)c(F)c(F)c3)N12 (stereo not drawn) [US11066409, Compound I-0171] | 19 nM
